Tests used:
Test in all cases: relative viability (nuclei count vs DMSO), 5 days (fraction); higher = more cells survive
Omipalisib = compound: COc1ncc(-c2ccc3nccc(-c4ccnnc4)c3c2)cc1NS(=O)(=O)c1ccc(F)cc1F [Omipalisib]
In short: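 Vehicle-anchored 1536-well plates of lung cancer cell lines, held overnight at 37 °C, were pinned with five library-drug doses (not always all listed) spaced by √10. No medium change followed over the next 5 days, after which the cells were fixed, permeabilised and Hoechst-stained together and imaged at 4×. Nuclei were counted with MetaXpress, and viability is treated-well nuclei over vehicle-well nuclei, taken as a median across plates. Plates passed with control CV below 25% and at least one doubling.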

Omipalisib + Phenformin = compound: COc1ncc(-c2ccc3nccc(-c4ccnnc4)c3c2)cc1NS(=O)(=O)c1ccc(F)cc1F [Omipalisib] + N=C(N)NC(=N)NCCc1ccccc1 [Phenformin] (partner 250 µM)
In short: (§1)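 Lung cancer cell lines in 1536-well plates were dosed by pin tool the day after seeding, either with one drug alone or with a fixed anchor-drug dose plus five library-drug doses (not always all listed) in √10 steps. After 5 days, cells were fixed and their nuclei stained in one step (final 0.05% Triton X-100, 1% formaldehyde, 1 ug/ml Hoechst), then counted on 4× images. Relative viability is the nuclei count in treated wells divided by that in vehicle wells. Values are medians of duplicate plates.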

Omipalisib + AZD7762 = compound: COc1ncc(-c2ccc3nccc(-c4ccnnc4)c3c2)cc1NS(=O)(=O)c1ccc(F)cc1F [Omipalisib] + NC(=O)Nc1cc(-c2cccc(F)c2)sc1C(=O)N[C@H]1CCCNC1 [AZD7762] (partner 0.2 µM)
In short: as §1

Omipalisib + Olaparib = compound: COc1ncc(-c2ccc3nccc(-c4ccnnc4)c3c2)cc1NS(=O)(=O)c1ccc(F)cc1F [Omipalisib] + O=C(c1cc(Cc2n[nH]c(=O)c3ccccc23)ccc1F)N1CCN(C(=O)C2CC2)CC1 [Olaparib] (partner 8 µM)
In short: as §1

Omipalisib + Linsitinib = compound: COc1ncc(-c2ccc3nccc(-c4ccnnc4)c3c2)cc1NS(=O)(=O)c1ccc(F)cc1F [Omipalisib] + C[C@]1(O)C[C@@H](c2nc(-c3ccc4ccc(-c5ccccc5)nc4c3)c3c(N)nccn32)C1 [Linsitinib] (partner 1 µM)
In short: as §1

Omipalisib + Vorinostat = compound: COc1ncc(-c2ccc3nccc(-c4ccnnc4)c3c2)cc1NS(=O)(=O)c1ccc(F)cc1F [Omipalisib] + O=C(CCCCCCC(=O)Nc1ccccc1)NO [Vorinostat] (partner 1 µM)
In short: as §1

| Cell Line | relative viability (Omipalisib; 0.0003 µM) | relative viability (Omipalisib; 0.003 µM) | relative viability (Omipalisib; 0.03 µM) | relative viability (Omipalisib + Phenformin; first compound 0.0003 µM) | relative viability (Omipalisib + Phenformin; first compound 0.003 µM) | relative viability (Omipalisib + Phenformin; first compound 0.03 µM) | relative viability (Omipalisib + AZD7762; first compound 0.0003 µM) | relative viability (Omipalisib + AZD7762; first compound 0.003 µM) | relative viability (Omipalisib + AZD7762; first compound 0.03 µM) | relative viability (Omipalisib + Olaparib; first compound 0.0003 µM) | relative viability (Omipalisib + Olaparib; first compound 0.003 µM) | relative viability (Omipalisib + Olaparib; first compound 0.03 µM) | relative viability (Omipalisib + Linsitinib; first compound 0.0003 µM) | relative viability (Omipalisib + Linsitinib; first compound 0.003 µM) | relative viability (Omipalisib + Linsitinib; first compound 0.03 µM) | relative viability (Omipalisib + Vorinostat; first compound 0.0003 µM) | relative viability (Omipalisib + Vorinostat; first compound 0.003 µM) | relative viability (Omipalisib + Vorinostat; first compound 0.03 µM) |
| --- | --- | --- | --- | --- | --- | --- | --- | --- | --- | --- | --- | --- | --- | --- | --- | --- | --- | --- |
| PC-14 | 1.05 | 1.05 | 0.795 | 0.537 | 0.639 | 0.368 | 0.294 | 0.327 | 0.18 | 0.343 | 0.404 | 0.42 | 0.954 | 0.931 | 0.794 | 0.683 | 0.527 | 0.373 |
| NCI-H2228 | 0.858 | 0.682 | 0.352 | 0.258 | 0.142 | 0.122 | – | – | – | 0.698 | 0.441 | 0.179 | 0.724 | 0.282 | 0.211 | 0.75 | 0.498 | 0.162 |
| HCC-44 | 1.01 | 0.953 | 0.416 | 0.202 | 0.141 | 0.102 | 1 | 1.13 | 1.07 | 1.01 | 0.974 | 0.534 | 0.658 | 0.457 | 0.282 | 1.12 | 1.18 | 0.559 |
| NCI-H727 | 1.05 | 0.68 | 0.544 | 0.817 | 0.447 | 0.509 | 0.627 | 0.486 | 0.412 | 0.754 | 0.612 | 0.598 | 0.276 | 0.245 | 0.234 | 1.1 | 1.02 | 0.987 |
| NCI-H520 | 0.787 | 0.588 | 0.252 | 0.405 | 0.209 | 0.2 | – | – | – | 0.295 | 0.294 | 0.139 | 0.9 | 0.672 | 0.275 | 0.623 | 0.458 | 0.214 |
| NCI-H2347 | 0.972 | 0.978 | 0.579 | 0.329 | 0.226 | 0.244 | 0.843 | 0.529 | 0.375 | 0.527 | 0.514 | 0.407 | 0.892 | 0.947 | 0.61 | 0.638 | 0.475 | 0.368 |
| NCI-H647 | 0.949 | 0.696 | 0.42 | 0.402 | 0.267 | 0.185 | 0.403 | 0.322 | 0.215 | 0.582 | 0.426 | 0.233 | 1.11 | 0.95 | 0.373 | 0.304 | 0.368 | 0.295 |
| NCI-H2342 | 0.741 | 0.63 | 0.534 | 0.56 | 0.482 | 0.424 | 0.47 | 0.434 | 0.383 | 0.411 | 0.376 | 0.239 | – | – | – | 0.678 | 0.536 | 0.499 |
| LXF-289 | 1.04 | 1.08 | 0.943 | 0.505 | 0.416 | 0.396 | 1.11 | 1.26 | 0.911 | 0.943 | 1.05 | 0.455 | 0.961 | 1 | 0.793 | 0.771 | 0.905 | 0.561 |
| SW 900 | 0.886 | 0.768 | 0.591 | 0.513 | 0.321 | 0.424 | 0.748 | 0.381 | 0.342 | 0.862 | 0.544 | 0.417 | – | – | – | 0.523 | 0.484 | 0.316 |
| COR-L23 | 1.01 | 1 | 0.631 | 0.461 | 0.508 | 0.406 | – | – | – | 0.34 | 0.301 | 0.265 | 0.813 | 0.771 | 0.38 | 0.404 | 0.377 | 0.242 |
| NCI-H1915 | 1.04 | 0.996 | 0.952 | 0.368 | 0.389 | 0.366 | 0.777 | 0.736 | 0.624 | 0.288 | 0.267 | 0.244 | 1.08 | 1.12 | 1.01 | 0.528 | 0.483 | 0.432 |
| NCI-H1437 | 1 | 0.837 | 0.398 | 0.334 | 0.249 | 0.333 | 1.17 | 1 | 0.395 | 0.673 | 0.603 | 0.537 | 0.952 | 0.824 | 0.404 | 0.948 | 0.75 | 0.448 |
| CAL-12T | 1.12 | 1.1 | 0.594 | 0.543 | 0.573 | 0.361 | 0.705 | 0.906 | 0.615 | 0.76 | 0.691 | 0.349 | 0.75 | 0.822 | 0.513 | 0.666 | 0.386 | 0.34 |
| NCI-H1651 | 0.928 | 0.851 | 0.595 | 0.274 | 0.307 | 0.214 | 0.521 | 0.434 | 0.359 | 0.177 | 0.177 | 0.172 | 0.931 | 0.737 | 0.417 | 0.517 | 0.457 | 0.437 |
| NCI-H1792 | 0.91 | 0.495 | 0.213 | 0.351 | 0.115 | 0.0784 | 0.467 | 0.347 | 0.165 | 0.382 | 0.0789 | 0.0824 | 0.417 | 0.441 | 0.164 | – | – | – |
| COR-L 105 | 0.937 | 0.976 | 0.535 | 0.468 | 0.458 | 0.289 | – | – | – | 0.596 | 0.708 | 0.569 | 0.963 | 0.835 | 0.717 | 0.853 | 0.809 | 0.568 |
| NCI-H596 | 0.944 | 0.673 | 0.421 | 0.692 | 0.445 | 0.387 | 0.966 | 0.546 | 0.479 | 0.639 | 0.604 | 0.402 | 0.817 | 0.517 | 0.355 | 0.581 | 0.364 | 0.447 |

Source: the supplement of paper PMC10307832
